Values quoted from earlier work as cited in US6821979B2, “Synergistic enhancement of cognitive ability” (Blanchette Rockefeller Neurosciences Institute, priority 2002, dated 2004).

Experiments:
carbonic anhydrase [1] = details: rats; CNS administration
carbonic anhydrase [2] = details: single dose; electroencephalogram during rapid-eye-movement sleep
carbonic anhydrase [3] = details: conscious animals; CNS administration; other sensory and/or locomotor behaviors not affected
[4] = theophylline alone; literature studies

SMILES: N[C@@H](Cc1ccccc1)C(=O)O [phenylalanine]
- ability to learn a water-maze task and to recall the maze from memory (carbonic anhydrase [1]): significantly enhances

SMILES: CC(=O)Nc1nnc(S(N)(=O)=O)s1 [acetazolamide]
- reduction of magnitudes of θ-wave frequency activity (carbonic anhydrase [2]): 50%
- spatial learning (carbonic anhydrase [3]): impairs spatial learning

SMILES: c1c[nH]cn1 [imidazole]
- ability to learn a water-maze task and to recall the maze from memory (carbonic anhydrase [1]): significantly enhances

SMILES: Cn1c(=O)c2[nH]cnc2n(C)c1=O [theophylline]
- effect on cognition [4]: insignificant
